pIC50, pKi: −log10 of the molar value.
Legend:
c-Met [1] = biological target: T1, c-Met (Homo sapiens, UniProt P08581); test: c-Met cell-based autophosphorylation assay, PC3 cells (HGF stimulated, IGEN readout); details: HGF 250 ng/mL
T1 construct: host or cells: PC3 (human)
Protocol: (§1) c-Met Cell-Based Autophosphorylation Assay
(§2) Human PC3 and mouse CT26 cells are available obtained from ATCC. […] 2×10^4 cells in medium were plated per well in a 96 well plate and incubated at 37° C. overnight. The cells were serum-starved by replacing the growth media with basic medium (DMEM low glucose+0.1 BSA, 120 μL per well) at 37° C. for 16 h. […] Compound samples (2.4 μL per well) were diluted with basic medium (240 μL) in a 96 well plate. […] The cells were incubated at 37° C. for 1 h. A (2 mg/mL) solution of CHO-HGF (7.5 μL) was diluted with 30 mL basic medium to provide a final concentration of 500 ng/mL. This HGF-containing media (120 μL) was transferred to a 96 well plate. Compounds (1.2 μL) was added to the HGF-containing media and mixed well.
(§3) BSA/0.1% Tween20) by rotating for 30 min at RT. Antibody beads (25 μL) were transferred to a 96 well plate. Cell lysate solution (25 μL) was transferred added and the plate was shaken at RT for 1 h. […] 1×PBS (175 μL) was added to each well and the electrochemiluminescence was read by an IGEN M8. Raw data was analyzed using a 4-parameter fit equation in XLFit. IC50 values are then determined using Grafit software.

c-Met [2] = biological target: T2, c-Met (Mus musculus, UniProt P16056); test: c-Met cell-based autophosphorylation assay, CT26 cells (HGF stimulated, IGEN readout); details: HGF 250 ng/mL
T2 construct: host or cells: CT26 (mouse)
Protocol: as §1, §2, §3

[3] = biological target: T3, c-Met kinase domain (GST-cMet) (Homo sapiens, UniProt P08581); test: c-Met receptor assay (HTRF kinase assay with GST-cMet (P) enzyme, gastrin and ATP); type: biochemical; details: for pIC50: c-Met receptor assay; for pKi: illustrative activity values, HTRF kinase assay with GST-cMet (P) enzyme
T3 construct: A PCR product covering residues 1058-1365 of c-Met (c-Met kinase domain); made in house; host or cells: High5 insect cells (baculovirus, BacToBac)
Protocol: Cloning, Expression and Purification of c-Met Kinase Domain
The PCR product is cloned into a modified pFastBac1 expression vector (harboring the gene for S. japonicum glutathione S-transferase immediately upstream of the multiple cloning site) using standard molecular biological techniques. The GST-c-Met kinase domain fusion (GST-Met) gene is transposed into full-length baculovirus DNA using the BacToBac™ system (Invitrogen). High5 cells are infected with the recombinant baculovirus for 72 h at 27° C. The infected cells are harvested by centrifugation and the pellet is stored at −80° C. The pellet is resuspended in buffer A (50 mM HEPES, pH 8.0, 0.25 M NaCl, 10 mM 2-mercaptoethanol, 10% (w/v) glycerol, 0.5% (v/v) protease inhibitor cocktail (Sigma P8340), stirred at 4° C. to homogeneity, and the cells are disrupted by microfluidization (Microfluidics) at 10,000 psi. The resulting lysate is centrifuged at 50,000×g for 90 min at 4° C., and the supernatant is adsorbed onto 10 mL of glutathione Sepharose™ 4B (Amersham) by batch method. The slurry is rocked gently overnight at 4° C. The glutathione resin is harvested by centrifugation and washed three times with 40 mL buffer A by batch method. The resin is washed three times with buffer B (buffer A adjusted to 0.1 M NaCl, less protease inhibitors). The protein is eluted with buffer B containing 25 mM reduced glutathione. Eluted fractions are analyzed by SDS-PAGE and concentrated to <10 mL (˜10 mg/mL total protein). The concentrated protein is separated by Superdex™ 200 (Amersham) size exclusion chromatography in buffer C (25 mM Tris, pH 7.5, 0.1 M NaCl, 10 mM 2-mercaptoethanol, 10% glycerol). The fractions are analyzed by SDS-PAGE and the appropriate fractions are pooled and concentrated to ˜1 mg/mL. The protein is aliquotted and stored at −80° C.
Alternative Purification of Human GST-cMET from Baculovirus Cells
The resin is washed with 10 column volumes (100 mL) of Lysis Buffer. […] The elution is collected as 15 mL fractions. Aliquots of the elution fractions are run on SDS PAGE (12% Tris Glycine gel, Invitrogen, #EC6005BOX). The gel is stained with 0.25% Coomassie Blue stain. Fractions with GST-cMET are concentrated with a Vivaspin 20 mL Concentrator (#VS2002; […]) to a final volume less than 2.0 ml. […] The GST-cMET is eluted with an isocratic run of the above buffer, with the eluent collected in 1.0 mL fractions. Fractions with significant OD280 readings are run on another 12% Tris Glycine gel. The peak tubes with GST-cMET are pooled and the OD280 is read with the column buffer listed above as the blank buffer.
Phosphorylation of the purified GST-cMET is performed by incubating the protein for 3 h at RT with the following:
After incubation, the solution is concentrated in a Vivaspin 20 ml Concentrator to a volume less than 2.00 ml. The solution is applied to the same Superdex 75 16/60 column used above after re-equilibration. The GST-cMET is eluted as described above. The elution fractions corresponding to the first eluted peak on the chromatogram are run on a 12% Tris Glycine gel, as above, to identify the fractions with GST-cMET. Fractions are pooled and the OD280 is read with the column buffer used as the blank.
A Kinase reaction Buffer is prepared as follows:
When the assay is carried out, freshly add:
The HTRF buffer contains:
1. […] 2. […] Then incubate the plate at RT for 30 min. 3.
Use Biomek FX to add 20 μl ATP and Gastrin working solution to the assay plate to start reaction, incubate the plate at RT for 1 h. 4.
KM ATP, KM gastrin for various enzymes were determined by HTRF/^33P labeling and HTRF methods.

T1 sequence (P08581 25-1390): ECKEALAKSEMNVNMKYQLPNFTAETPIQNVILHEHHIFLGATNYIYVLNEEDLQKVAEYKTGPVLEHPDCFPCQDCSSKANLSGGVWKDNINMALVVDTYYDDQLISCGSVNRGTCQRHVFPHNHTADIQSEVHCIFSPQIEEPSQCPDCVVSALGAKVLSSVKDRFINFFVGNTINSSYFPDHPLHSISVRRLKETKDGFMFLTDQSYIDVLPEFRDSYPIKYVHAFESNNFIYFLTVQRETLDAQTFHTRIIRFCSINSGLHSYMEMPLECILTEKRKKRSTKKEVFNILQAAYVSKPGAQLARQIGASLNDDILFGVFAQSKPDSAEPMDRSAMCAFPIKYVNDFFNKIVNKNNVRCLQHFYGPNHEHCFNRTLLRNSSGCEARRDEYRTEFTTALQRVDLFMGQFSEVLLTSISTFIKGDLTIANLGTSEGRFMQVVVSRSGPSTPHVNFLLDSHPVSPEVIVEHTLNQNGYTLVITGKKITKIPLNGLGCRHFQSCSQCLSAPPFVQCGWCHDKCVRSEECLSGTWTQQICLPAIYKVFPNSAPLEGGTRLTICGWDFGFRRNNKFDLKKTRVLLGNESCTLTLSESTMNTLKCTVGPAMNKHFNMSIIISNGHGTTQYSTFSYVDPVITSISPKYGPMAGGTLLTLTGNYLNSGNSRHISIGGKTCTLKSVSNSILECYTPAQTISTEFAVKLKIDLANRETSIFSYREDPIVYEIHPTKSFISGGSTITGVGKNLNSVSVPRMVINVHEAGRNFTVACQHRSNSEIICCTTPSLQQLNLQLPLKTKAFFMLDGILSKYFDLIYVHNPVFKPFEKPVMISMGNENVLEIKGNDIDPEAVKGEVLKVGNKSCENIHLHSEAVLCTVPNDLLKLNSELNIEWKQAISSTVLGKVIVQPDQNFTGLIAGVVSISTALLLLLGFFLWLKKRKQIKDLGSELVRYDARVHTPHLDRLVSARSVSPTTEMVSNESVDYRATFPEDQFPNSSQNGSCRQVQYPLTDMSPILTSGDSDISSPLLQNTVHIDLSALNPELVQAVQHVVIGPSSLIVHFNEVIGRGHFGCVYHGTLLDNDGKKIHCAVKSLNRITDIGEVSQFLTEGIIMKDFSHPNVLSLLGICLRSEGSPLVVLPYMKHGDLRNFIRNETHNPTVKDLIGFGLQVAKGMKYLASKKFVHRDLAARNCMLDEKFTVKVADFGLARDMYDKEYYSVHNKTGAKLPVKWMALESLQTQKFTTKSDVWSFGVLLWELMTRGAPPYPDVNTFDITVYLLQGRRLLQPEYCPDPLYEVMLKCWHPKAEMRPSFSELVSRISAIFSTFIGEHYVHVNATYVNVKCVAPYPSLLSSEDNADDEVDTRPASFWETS
T3 sequence (P08581 1058-1365): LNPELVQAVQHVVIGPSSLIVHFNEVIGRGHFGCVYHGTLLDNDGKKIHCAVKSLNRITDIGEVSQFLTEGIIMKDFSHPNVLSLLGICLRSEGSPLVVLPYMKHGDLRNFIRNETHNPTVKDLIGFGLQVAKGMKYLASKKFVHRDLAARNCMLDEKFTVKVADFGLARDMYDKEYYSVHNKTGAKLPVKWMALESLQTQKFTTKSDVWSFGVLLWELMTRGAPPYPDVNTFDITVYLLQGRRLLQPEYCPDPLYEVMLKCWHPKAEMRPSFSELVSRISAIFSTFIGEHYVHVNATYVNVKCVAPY
T2 sequence (P16056 25-1379): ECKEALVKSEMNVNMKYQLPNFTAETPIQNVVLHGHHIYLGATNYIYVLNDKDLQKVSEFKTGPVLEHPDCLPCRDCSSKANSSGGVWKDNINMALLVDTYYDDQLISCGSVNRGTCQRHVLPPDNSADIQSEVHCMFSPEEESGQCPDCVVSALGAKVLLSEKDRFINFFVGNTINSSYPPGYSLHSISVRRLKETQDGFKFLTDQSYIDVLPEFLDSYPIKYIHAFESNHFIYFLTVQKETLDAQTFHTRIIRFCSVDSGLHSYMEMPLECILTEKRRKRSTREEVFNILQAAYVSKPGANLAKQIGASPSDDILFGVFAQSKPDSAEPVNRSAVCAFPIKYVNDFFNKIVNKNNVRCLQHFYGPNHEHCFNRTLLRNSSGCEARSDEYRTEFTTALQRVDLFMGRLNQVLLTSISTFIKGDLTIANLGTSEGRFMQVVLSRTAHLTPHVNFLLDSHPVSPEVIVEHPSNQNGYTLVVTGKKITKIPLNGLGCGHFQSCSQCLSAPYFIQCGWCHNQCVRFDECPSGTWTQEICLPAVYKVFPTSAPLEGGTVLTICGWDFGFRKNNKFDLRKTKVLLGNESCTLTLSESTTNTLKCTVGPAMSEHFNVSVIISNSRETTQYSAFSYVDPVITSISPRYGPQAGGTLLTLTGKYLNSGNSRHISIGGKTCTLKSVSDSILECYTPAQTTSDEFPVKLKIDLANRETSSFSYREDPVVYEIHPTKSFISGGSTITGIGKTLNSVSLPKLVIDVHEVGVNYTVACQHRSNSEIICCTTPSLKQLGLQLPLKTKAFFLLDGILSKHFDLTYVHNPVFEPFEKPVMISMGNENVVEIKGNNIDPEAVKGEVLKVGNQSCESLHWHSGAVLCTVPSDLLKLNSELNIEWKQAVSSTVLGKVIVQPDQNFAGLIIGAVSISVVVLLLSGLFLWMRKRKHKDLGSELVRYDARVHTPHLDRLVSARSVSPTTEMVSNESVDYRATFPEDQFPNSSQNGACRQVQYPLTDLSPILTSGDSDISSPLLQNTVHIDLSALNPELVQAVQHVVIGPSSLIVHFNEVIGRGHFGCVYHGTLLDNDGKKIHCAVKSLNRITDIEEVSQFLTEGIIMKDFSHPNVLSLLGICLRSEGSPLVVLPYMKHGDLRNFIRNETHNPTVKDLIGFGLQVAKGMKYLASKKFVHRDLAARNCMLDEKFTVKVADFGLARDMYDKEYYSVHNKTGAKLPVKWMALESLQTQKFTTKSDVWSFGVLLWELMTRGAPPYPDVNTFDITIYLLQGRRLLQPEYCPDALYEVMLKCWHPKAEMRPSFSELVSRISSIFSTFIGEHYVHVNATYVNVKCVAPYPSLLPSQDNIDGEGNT

SMILES	pIC50 (c-Met [1])	pIC50 (c-Met [2])	pIC50 [3]	pKi [3]
c1ccc(-c2ccc3nnc(COc4ccnc5ccccc45)n3n2)cc1 [Example 2, 4-((6-phenyl-[1,2,4]triazolo[4,3-b]pyridazin-3-yl)methoxy)quinoline]	> 6.00	> 6.00	–	–
CNC(=O)c1ccc(-c2ccc3nnc(COc4ccnc5cc(OC)ccc45)n3n2)s1 [Example 30, 5-(3-((7-methoxyquinolin-4-yloxy)methyl)-[1,2,4]triazolo[4,3-b]pyridazin-6-yl)-N-methylthiophene-2-carboxamide]	–	–	> 6.30	–
COc1cnc2c(NCc3nnc4ccc(-c5cc(C(=O)O)no5)nn34)ccnc2c1 [Example 36, 5-(3-((7-methoxy-1,5-naphthyridin-4-ylamino)methyl)-[1,2,4]triazolo[4,3-b]pyridazin-6-yl)isoxazole-3-carboxylic acid]	> 6.00	> 6.00	> 6.30	–
COc1cnc2c(NCc3nnc4ccc(-c5cc(CO)no5)nn34)ccnc2c1 [Example 37, (5-(3-((7-methoxy-1,5-naphthyridin-4-ylamino)methyl)-[1,2,4]triazolo[4,3-b]pyridazin-6-yl)isoxazol-3-yl)methanol]	> 6.00	> 6.00	> 6.30	–
COc1ccc2c(OCc3nnc4ccc(-c5ccc(N(C)C)nc5)nn34)ccnc2c1 [Example 43, 5-(3-((7-methoxyquinolin-4-yloxy)methyl)-[1,2,4]triazolo[4,3-b]pyridazin-6-yl)-N,N-dimethylpyridin-2-amine]	> 6.00	> 6.00	–	–
c1ccc(-c2ccc3nnc(Cc4ccc5c(c4)OCO5)n3n2)cc1 [Example 326]	–	–	–	6.40
Fc1cc(-c2ccccc2)cn2c(Cc3ccc4ncccc4c3)nnc12 [Example 437, 6-((8-fluoro-6-phenyl-[1,2,4]triazolo[4,3-a]pyridin-3-yl)methyl)quinoline]	–	–	–	7.44
C[C@H](c1nnc2c(F)cc(-c3cnn(CCO)c3)cn12)n1ccc2ncccc2c1=O [Example 509, (R)-6-(1-(8-fluoro-6-(1-(2-hydroxyethyl)-1H-pyrazol-4-yl)-[1,2,4]triazolo[4,3-a]pyridin-3-yl)ethyl)-1,6-naphthyridin-5(6H)-one]	–	–	–	8.49
Cc1csc(-c2cc(F)c3nnc([C@@H](C)n4ccc5ncccc5c4=O)n3c2)c1 [Example 511, (R)-6-(1-(8-fluoro-6-(4-methylthiophen-2-yl)-[1,2,4]-triazolo[4,3-a]pyridin-3-yl)ethyl)-1,6-naphthyridin-5(6H)-one]	–	–	–	9.30
Cc1cc(-c2cc(F)c3nnc([C@@H](C)n4ccc5ncc(-c6cnn(C)c6)cc5c4=O)n3c2)on1 [Example 527, 6-((R)-1-(8-fluoro-6-(3-methylisoxazol-5-yl)-[1,2,4]-triazolo[4,3-a]pyridin-3-yl)ethyl)-3-(1-methyl-1H-pyrazol-4-yl)-1,6-naphthyridin-5(6H)-one]	–	–	–	9.52

Reference: patent US20120107275A1, “FUSED HETEROCYCLIC DERIVATIVES AND METHODS OF USE” (Amgen Inc., priority 2006, published 2012)
